Results taken from ChEMBL document CHEMBL5518179, “Resveratrol-derived inhibitors of the E3 ubiquitin ligase PELI1 inhibit the metastasis of triple-negative breast cancer” (Eur J Med Chem, 2024).

Biological target: T1, E3 ubiquitin-protein ligase pellino homolog 1 (Homo sapiens, UniProt Q96FA3)
T1 sequence (Q96FA3 whole entry): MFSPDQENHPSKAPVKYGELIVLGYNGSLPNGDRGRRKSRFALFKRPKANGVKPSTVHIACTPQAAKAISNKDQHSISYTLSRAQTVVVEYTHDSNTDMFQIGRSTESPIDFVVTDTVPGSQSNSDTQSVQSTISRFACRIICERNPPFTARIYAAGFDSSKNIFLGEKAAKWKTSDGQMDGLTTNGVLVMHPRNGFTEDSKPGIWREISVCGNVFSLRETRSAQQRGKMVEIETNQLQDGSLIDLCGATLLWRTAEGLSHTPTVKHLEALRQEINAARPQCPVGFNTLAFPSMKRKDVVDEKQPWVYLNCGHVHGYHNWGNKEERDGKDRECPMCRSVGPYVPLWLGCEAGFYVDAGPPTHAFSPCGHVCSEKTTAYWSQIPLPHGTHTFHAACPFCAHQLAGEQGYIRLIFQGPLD
Assay: Binding affinity to PELI1 FHA domain (unknown origin) expressed in Escherichia coli BL21(DE3) competent cell measured after 1 min by fluorescence quenching assay
Settings: not given; call rule not given here

Row | Structure (SMILES) | Kd
1 | Oc1cc(O)cc(/C=C/c2ccc(-c3ccsc3)cc2)c1 | Not Active
2 | Oc1ccc(-c2ccc(/C=C/c3cc(O)cc(O)c3)cc2)cc1 | Not Active
3 | O=[N+]([O-])c1cccc(-c2ccc(/C=C/c3cc(O)cc(O)c3)cc2)c1 | Not Active
4 | O=C(/C=C/c1ccc(/C=C/c2cc(O)cc(O)c2)cc1)N1CCCCC1 | Not Active
5 | O=C(/C=C/c1ccccc1)Nc1ccc(/C=C/c2cc(O)cc(O)c2)cc1 | Not Active
6 | C/C=C/C(=O)Nc1ccc(/C=C/c2cc(O)cc(O)c2)cc1 | Not Active
7 | CN(C)C(=O)/C=C/c1ccc(/C=C/c2cc(O)cc(O)c2)cc1 | Not Active
8 | Oc1cc(O)cc(/C=C/c2ccc(-c3ccoc3)cc2)c1 | Not Active
9 | Oc1cc(O)cc(/C=C/c2ccc(-c3ccccc3)cc2)c1 | Not Active
10 | Oc1cc(O)cc(/C=C/c2ccc(-c3cccc(O)c3)cc2)c1 | Not Active

Now from value to molecule:

Row | Kd | Structure (SMILES)
11 | Not Active | CNC(=O)/C=C/c1ccc(/C=C/c2cc(O)cc(O)c2)cc1
12 | Not Active | O=C(/C=C/c1ccccc1)Nc1ccc(O)c(/C=C/c2cc(O)cc(O)c2)c1
13 | Not Active | CCCNC(=O)/C=C/c1ccc(/C=C/c2cc(O)cc(O)c2)cc1
14 | Not Active | NC(=O)/C=C/c1ccc(/C=C/c2cc(O)cc(O)c2)cc1

Same assay, conditions: read-out: Kd

Row | Structure (SMILES) | Kd [µM]
15 | CNC(=O)/C=C/c1ccccc1 | 212
16 | O=C(/C=C/c1cc(O)ccc1/C=C/c1cc(O)cc(O)c1)N1CCCCC1 | 96.3
17 | O=c1ccc2ccc(O)c(O)c2o1 [DAPHNETIN] | 336
18 | O=C(Nc1ccccc1)c1cccnc1 [NICOTINANILIDE] | 336
19 | Oc1ccc(/C=C/c2cc(O)cc(O)c2)cc1 [RESVERATROL] | 125
20 | COc1cc(C=O)ccc1O [VANILLIN] | 228

Next, values leading:

Row | Kd [µM] | Structure (SMILES)
21 | 59.9 | CNC(=O)/C=C/c1ccc(O)c(/C=C/c2cc(O)cc(O)c2)c1
22 | 55.7 | NC(=O)/C=C/c1ccc(O)c(/C=C/c2cc(O)cc(O)c2)c1
23 | 37.9 | O=C(/C=C/c1cc(/C=C/c2cc(O)cc(O)c2)ccc1O)N1CCCCC1
24 | 42.3 | CNC(=O)/C=C/c1cc(/C=C/c2cc(O)cc(O)c2)ccc1O
25 | 124 | O=C(/C=C/c1ccccc1)Nc1cc(/C=C/c2cc(O)cc(O)c2)ccc1O
26 | 126 | C/C=C/C(=O)Nc1cc(/C=C/c2cc(O)cc(O)c2)ccc1O
27 | 26.9 | O=C(/C=C/c1ccc(O)c(/C=C/c2cc(O)cc(O)c2)c1)N1CCCCC1
28 | 44.4 | CCCNC(=O)/C=C/c1cc(/C=C/c2cc(O)cc(O)c2)ccc1O
29 | 64.3 | C/C=C/C(=O)Nc1ccc(O)c(/C=C/c2cc(O)cc(O)c2)c1
30 | 51.5 | O=C(/C=C/c1ccccc1)Nc1cc(O)ccc1/C=C/c1cc(O)cc(O)c1
31 | 86.9 | C/C=C/C(=O)Nc1cc(O)ccc1/C=C/c1cc(O)cc(O)c1
32 | 104 | CN(C)C(=O)/C=C/c1cc(O)ccc1/C=C/c1cc(O)cc(O)c1
33 | 40.1 | NC(=O)/C=C/c1cc(O)ccc1/C=C/c1cc(O)cc(O)c1
34 | 39.3 | CNC(=O)/C=C/c1cc(O)ccc1/C=C/c1cc(O)cc(O)c1
35 | 70.1 | CCCNC(=O)/C=C/c1cc(O)ccc1/C=C/c1cc(O)cc(O)c1
